Results taken from patent publication US10905703B2, “Preparation of a composition containing stilbene glycoside” (priority 2015, dated 2021).

Key:
[1] = test system: male CF-1 mice; experiment: Animal study with pure trans- and cis-stilbene glycoside in high fat diet induced male CF-1 mice; type: in vivo; conditions: for serum glucose level / GTT: rise in blood glucose level / effect on glucose intolerance / serum insulin levels: 0.01% in drinking water; for serum glucose level: HFD for 12 weeks, FIG. 12; for GTT: rise in blood glucose level / effect on glucose intolerance / serum insulin levels: HFD 12 weeks; for GTT: rise in blood glucose level / effect on glucose intolerance: intraperitoneal glucose; for serum insulin levels: vs HF group
From the text: Male CF-1 mice were selected as the model for type 2 diabetes. The mice were kept on Western HFD for 12 weeks and were divided into five groups with 10 each. Group I: Normal control which had free access to drinking water and normal Chow; Group II: Diabetic control which had free access to drinking water and Western HFD; Group III: Treatment group which had free access to drinking water with 0.01% of pure trans-stilbene glycoside and HFD; Group IV: Treatment group which had free access to drinking water with 0.01% of pure cis-stilbene glycoside and Western HFD. Group V: […] Body weight, food and water uptake of the mice were taken on a regular basis. After 12 weeks, all the experimental mice were sacrificed. Body weight, blood glucose and blood insulin levels were evaluated as described before. Glucose tolerance test was also carried out at the end of the study.

[2] = test system: phosphoenolpyruvate carboxykinase (PEPCK) mRNA expression; experiment: PEPCK assay (qPCR of Dex-cAMP induced PEPCK mRNA) in HepG2 cells; type: cell-based; conditions: for concentration dependence of PEPCK suppression: 30 μM vs 100 μM; for reduction of PEPCK mRNA compared to Dex/cAMP group: comparative Ct method; for suppression of Dex/cAMP-induced up-regulation of PEPCK transcription: normalized with β-actin, FIG. 13A
Protocol: The HepG2 cells were plated in 24-well tissue culture plates and were grown to near confluence in Dulbecco's modified Eagle's medium containing 2.5% (vol/vol) newborn calf serum and 2.5% (vol/vol) fetal calf serum. […]
Total RNA was extracted from HepG2 cells using Trizol reagent, following the manufacturer's instructions. RNA was quantified spectrophotometrically by absorbance measurements at 260 and 280 nm. Quality of RNA was assessed by separation in gel electrophoresis. RNA was then treated with Dnasel (Invitrogen), following the manufacturer's guidelines, to remove any traces of DNA contamination. The cDNAs were synthesized with […] of RNA for each sample, using Stratascript reverse transcriptase (Stratagene, La Jolla, Calif.), following the manufacturer's protocol. The synthesized cDNAs were diluted fourfold. Five microliters of each of these diluted samples was used for PCR reactions of 25 ηL final volume. The other components of the PCR reactions were 0.5 ηL of 6 ηM gene-specific primers and 12.5 ηL of Brilliant SYBR Green PCR master mix (containing green jump-start Taq ready mix). ROX (Stratagene, La Jolla, Calif.) was used as a reference dye. The primers were selected using the Primer Express version 2.0 software (Applied Biosystems, Foster City, Calif.). These primers generated a 76-bp product from β-actin mRNA. The intron-spanning forward primer was selected to cover the exon 9-10 boundary. The reverse primer was selected from exon 10. The oligos were synthesized by IDT. These primers generated a 74-bp product from PEPCK mRNA and a 207-bp product from genomic DNA.
Quantitative PCR (qPCR) amplifications were performed on an MX3000p system (Stratagene, La Jolla, Calif.) using one cycle at 50° C. for 2 min and one cycle of 95° C. for 10 min, followed by 40 cycles of 15 s at 95° C. and 1 min at 60° C. The dissociation curve was completed with one cycle of 1 min at 95° C., 30 s at 55° C., and 30 s at 95° C. Non-RT control and no-template control were included in each experiment as quality control steps.
PEPCK mRNA expressions were analyzed using the ΔΔCT method and normalized with respect to the expression of the β-actin house keeping gene. The ΔΔCT Values obtained from these methods reflect the relative mRNA quantities for a specific gene in response to a treatment as relative to a calibrator. The Dex-cAMP treatment (positive control) served as the calibrator sample in this study. The PECPK gene expression of the calibrator sample was assigned to a value of 1.0. A value of <1.0 indicates transcriptional down-regulation (inhibition of gene expression) relative to the calibrator. Amplification of specific transcripts was further confirmed by obtaining melting curve profiles. All samples were run in duplicate.

[3] = test system: female KK CgAy/J mice; experiment: Anti-diabetic effect of stilbene glycoside in female KK CgAy/J mice incl. glucose and insulin tolerance tests; type: in vivo; conditions: for blood / serum glucose level vs diabetic control: stilbene glycoside 0.075% in drinking water, metformin 300 mg/kg; for insulin tolerance test: level of glucose: 30 minutes after insulin injection
From the text: Female KK CgAy/J mice were also utilized in this experiment and handled with the same protocol as in 1.2.3. The mice were divided into four groups with 10 each, and fed with Western HFD. […] Body weight, food and water uptake of the mice were taken on a regular basis. After 12 weeks, all the experimental mice were sacrificed. Similar measurements were taken to the previous experiment with PM extract. Before sacrifice, all the experimental mice were subjected to glucose and insulin tolerance tests. For glucose tolerance test, mice were fasted overnight and injected with glucose solution at 1 g/10 ml and 10 ml/kg body weight. The change in blood glucose level was monitored during the following two hours. For insulin tolerance test, mice were fasted for 5 hours and injected with insulin solution at 1 u/ml and 10 ml/kg body weight. The change in blood glucose level was monitored during the following two hours.

[4] = cited from earlier work
[5] = rats, cited from earlier work
[6] = compared with resveratrol; cited from earlier work
[7] = test system: female KK mice; experiment: Animal study with trans- and cis-stilbene glycoside extracts in HFD-induced female KK mice; type: in vivo; conditions: 18 weeks HFD, solutions in drinking water
Protocol: Female KK mice were purchased from Jackson labs (Barr Harbor, Me.) and were housed in stainless steel wire-bottomed cages and acclimatized under laboratory conditions (19-23° C., humidity 60%, 12 h light/dark cycle). Normal control mice (n=10) were fed with control diet which was normal Chow 5001 from LabDiet (St. Louis, Mo.) and was composed of 28.5 kcal % protein, 58 kcal % carbohydrate and 13.5 kcal % fat. Diabetic control mice (n=10) were induced with HFD (Research Diets, New Brunswick, N.J.) composed of 20 kcal % protein, 20 kcal % carbohydrate, and 60 kcal % fat (from butter) for 18 weeks. Three solutions were administered to mice (n=10 each) on HFD ad libitum and the compositions are shown below. Solution 1: pure trans-stilbene glycoside (0.05% in drinking water), HPLC chromatogram in FIG. 3.2 (A); Solution 2: 60% ethanol extract of PM root powders, obtained according to procedure in Section 1.2.1 (proportion of cis-stilbene glycoside to trans-stilbene glycoside is approximately 1:20, 0.075% in drinking water), HPLC chromatogram in FIG. 3.2 (B); Solutions 3: obtained from exposing solution 2 under UV-light overnight (proportion of cis-stilbene glycoside to trans-stilbene glycoside is approximately 2:3, 0.075% in drinking water), HPLC chromatogram in FIG. 3.2 (C). After 18 weeks, body weight and blood glucose of all mice were measured.

## Cn1c(=O)c2c(ncn2C)n(C)c1=O [caffeine, reference compound]
[1]
  serum glucose level: significantly decrease

## OC[C@H]1O[C@@H](Oc2c(O)cc(O)cc2/C=C/c2ccc(O)cc2)[C@H](O)[C@@H](O)[C@@H]1O [cis-stilbene glycoside, 2,3,5,4-tetrahydroxystilbene 2-O-β-glucopyranoside]
[1]
  GTT: rise in blood glucose level / effect on glucose intolerance: greatly suppressed
  serum insulin levels: significantly lowered
  serum glucose level: significantly decrease
[1]; cis group relative to trans group
  Calculated HOMA-IR lower than that in trans-stilbene glycoside group: 102.7%
[2]
  concentration dependence of PEPCK suppression: suppressed more efficiently at 30 μM than at 100 μM
  suppression of Dex/cAMP-induced up-regulation of PEPCK transcription: effectively suppress
[2]; 30 μM
  reduction of PEPCK mRNA compared to Dex/cAMP group: 61.7%

## CN(C)C(=N)N=C(N)N [metformin, reference compound]
[3]; 12 weeks HFD, FIG. 6
  blood / serum glucose level vs diabetic control: effectively brought down
[3]; FIG. 7B
  insulin tolerance test: level of glucose: higher level of glucose
[3]; two hours after insulin injection, FIG. 7B
  insulin tolerance test: blood glucose: dropped to a lower level than that of stilbene glycoside group

## OC[C@H]1O[C@@H](Oc2c(O)cc(O)cc2/C=C/c2ccc(O)cc2)[C@H](O)[C@@H](O)[C@@H]1O [stilbene glycoside, 2,3,5,4-tetrahydroxystilbene 2-O-β-glucopyranoside]
[3]; 12 weeks HFD, 0.075% in drinking water, FIG. 6
  serum insulin level vs diabetic control: elevated
[3]; 12 weeks HFD, FIG. 6
  blood / serum glucose level vs diabetic control: elevated
[3]; 30 minutes after glucose injection (1 g/kg), FIG. 7A
  glucose tolerance test: blood glucose level: the most elevated
[3]; FIG. 7B
  insulin tolerance test: level of glucose: higher level of glucose
[3]; at the end of the test (two hours), FIG. 7A
  glucose tolerance test: blood glucose: remained much higher than normal control and metformin groups
[3]; overall finding of glucose tolerance test
  glucose tolerance: glucose intolerant
[4]
  solubility: soluble in water, methanol and ethanol
[5]; single intravenous or oral administration
  time of distribution: ≤ 30 min
[5]; within 24 hr
  Total recovery of unchanged stilbene glycoside in bile: 0.041%
  Total recovery of unchanged stilbene glycoside in feces: 0.06%
  amount of unchanged stilbene glycoside excreted in the urine: lower than Lower Limit of Quantification (LLOQ)
[5]
  Absolute bioavailability: 40%
[5]; metabolites including monoglucuronide and the deglycosidated form
  form of excretion: excreted mainly in the forms of metabolites
[6]
  antioxidant activity: higher antioxidant activity than resveratrol

## OC[C@H]1O[C@@H](Oc2c(O)cc(O)cc2/C=C/c2ccc(O)cc2)[C@H](O)[C@@H](O)[C@@H]1O [trans-stilbene glycoside, 2,3,5,4-tetrahydroxystilbene 2-O-β-glucopyranoside]
[7]
  high fat induced body weight gain compared to diabetic control: none of the three solutions significantly decreased
[1]
  GTT: rise in blood glucose level / effect on glucose intolerance: absent
  serum insulin levels: significantly lowered
  serum glucose level: significantly decrease
[2]
  concentration dependence of PEPCK suppression: higher concentration resulted in lower level of PEPCK transcription
  suppression of Dex/cAMP-induced up-regulation of PEPCK transcription: effectively suppress
[2]; 100 μM
  reduction of PEPCK mRNA compared to Dex/cAMP group: 53.3%
